Reference: patent publication US6593094B2, “Compositions to enhance the efficacy and safety of bio-pharmaceutical drugs” (priority 1992, dated 2003)

Experiments:
beta-1-receptors = target: T1, beta-1-receptors (Rattus norvegicus, UniProt P18090); experiment: in vivo cardiac response (dP/dt, LVP, HR) in anesthetized rat during infusion; conditions: i.v. infusion at varying rates
T1 construct: from tissue; host or cells: heart of anesthetized rat, in vivo (left ventricular pressure, dP/dt, heart rate)
T1 sequence (P18090 whole entry, the tested form may be a part): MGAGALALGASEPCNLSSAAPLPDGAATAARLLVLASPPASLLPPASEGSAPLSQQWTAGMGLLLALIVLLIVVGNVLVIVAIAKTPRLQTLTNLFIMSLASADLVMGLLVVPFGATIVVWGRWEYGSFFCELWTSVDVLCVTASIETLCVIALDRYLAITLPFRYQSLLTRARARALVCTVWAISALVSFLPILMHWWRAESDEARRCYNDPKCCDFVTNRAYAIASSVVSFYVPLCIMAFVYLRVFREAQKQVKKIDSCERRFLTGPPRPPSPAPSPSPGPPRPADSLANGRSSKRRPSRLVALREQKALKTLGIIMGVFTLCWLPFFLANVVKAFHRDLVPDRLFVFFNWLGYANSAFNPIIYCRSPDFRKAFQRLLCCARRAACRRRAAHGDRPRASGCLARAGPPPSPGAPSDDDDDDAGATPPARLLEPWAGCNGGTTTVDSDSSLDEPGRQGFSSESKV
Experimental: Following sedation, the neck of the rat was incised and a tracheotomy was performed, inserting a 14-gauge angiocatheter sheath into the trachea of the rat and securing it with a silk tie. The angiocatheter was connected through a small tube to a small animal respirator supplied with 1.0 liters of oxygen per minute and set to 95 breaths per minute.
The right carotid artery was next tied off, and after making a small incision, a Micro-Tip Millar pressure catheter was introduced down through the carotid artery, placing the end of the catheter into the left ventricular cavity of the rat's heart. Position of the catheter tip was determined by the waveform of the pressure reading-placement in the left ventricle was presumed when a diastolic pressure of zero mmHg and a reasonable systolic pressure (70 to 150 mmHg) was observed. […]
At this point for each rat, a baseline recording was obtained of the left ventricular pressure tracing. Segments of three to five seconds were recorded, and it was from these recorded tracings that the included figures of maximum left ventricular pressure (reported as LVP), maximum time-derivative of left ventricular pressure (dP/dT), and heart rate (HR) were later determined, by analysis with Sonometrics CardioSOFT data analysis software. […]
Again, at each rate, LVP was recorded for later analysis. […]

mice = conditions: i.v. in mice; cited from earlier work
β2 receptor = β2 receptor (Cavia porcellus, UniProt Q8K4Z4); conditions: calculated from a fit of the isoproterenol control curve
Chain of β2 receptor (Q8K4Z4 whole entry): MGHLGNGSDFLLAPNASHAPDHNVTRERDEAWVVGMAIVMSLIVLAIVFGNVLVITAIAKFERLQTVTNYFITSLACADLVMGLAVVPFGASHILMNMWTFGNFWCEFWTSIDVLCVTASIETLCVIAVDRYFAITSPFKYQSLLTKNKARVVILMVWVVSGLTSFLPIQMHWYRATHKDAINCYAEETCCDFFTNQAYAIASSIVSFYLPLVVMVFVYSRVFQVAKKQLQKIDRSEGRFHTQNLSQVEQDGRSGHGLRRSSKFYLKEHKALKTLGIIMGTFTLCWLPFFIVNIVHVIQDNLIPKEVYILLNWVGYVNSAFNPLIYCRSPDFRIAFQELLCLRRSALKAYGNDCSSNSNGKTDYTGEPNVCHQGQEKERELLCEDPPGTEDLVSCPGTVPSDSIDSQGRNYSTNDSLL
Source text: It is noted that, in the relevant art, there exists a method for calculating drug efficacy by utilization of easily identifiable biophysical parameters. […] Specifically, the experimental data and the calculated values were compared.

Compound	dP/dT response with increasing dosage (beta-1-receptors)	dP/dT response with increasing dosage (beta-1-receptors; listed as Dob)	LD50 (mice)	φ=(KDLKDH/2)^−½, value of the maximum of the control curve (β2 receptor)
CC(CCc1ccc(O)cc1)NCCc1ccc(O)c(O)c1 (stereo not shown) [dobutamine]	at higher dosages the dP/dT again began to decrease (desensitization)	showed a decline in response	73 mg/kg	–
CC(C)NCC(O)c1ccc(O)c(O)c1 (stereo not shown) [isoproterenol]	–	–	–	7.48 µM
